The structures appear in SMILES notation.

Data set [1] can be described thus: Solubility in a basic environment, such as the intestine. Format: physicochemical.
Data set [2] is described as follows: Bioavailability on co-administration with a proton-pump inhibitor. Format: in vivo. To be noted: co-administered with a proton-pump inhibitor.

Turning to `COCCOc1ccc(N2CCN(CCn3ncc4c3nc(N)n3nc(-c5ccco5)nc43)CC2)cc1` [Formula IA, preladenant], the Solubility result in data set [1] was “poorly soluble”. In data set [2], the Bioavailability result is on record as “sharp drop in bioavailability”. For `CC#Cc1nc2c3cnn(CCN4CCN(c5cc6c(C)noc6cc5F)CC4)c3nc(N)n2n1` [Formula IB], in data set [1], the Solubility entry is recorded as “poorly soluble”.

These data come from patent US10207002B2, “Sustained release formulation and tablets prepared therefrom” (Merck Sharp & Dohme Corp., priority 2015, dated 2019).
